Assay results taken from patent publication EP2818472A1, “Imidazo[4,5-c]pyridine and pyrrolo[3,2-c]pyridine compounds as G-protein-coupled receptor kinase 5 (GRK5) modulators” (Max-Planck-Gesellschaft zur Förderung der Wissenschaften …, priority 2013, dated 2014).

System: beta-TC6 cells
Assay: Insulin HTRF assay (relative activity Ar) in beta-TC6 cells
Assay type: cell-based, mouse
Details: Mus musculus, Beta-TC6, 4 h, insulin HTRF, supernatant of beta-TC6 cells, incubation with test compound at 37°C for 2, 3, 4h; read-out: Ar (relative activity)
Outline: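 beta-TC6 cells (15k/well, seeded 24 or 48 h) washed, then exposed to compound in induction buffer (0.5% DMSO final) for 2, 3 or 4 h at 37°C.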

SMILES | Emax [%]
CS(=O)(=O)Nc1cccc(Nc2nccc3[nH]c(-c4ccsc4)cc23)c1 [Compound 265, N-[3-[[2-(3-thienyl)-1H-pyrrolo[3,2-c]pyridin-4-yl]amino]phenyl]methanesulfonamide] | 50 to 100
CC(=O)Nc1cccc(Nc2nccc3[nH]c(-c4ccsc4)cc23)c1 [Compound 266, N-[3-[[2-(3-thienyl)-1H-pyrrolo[3,2-c]pyridin-4-yl]amino]phenyl]acetamide] | 50 to 100
CC(=O)c1cccc(Nc2nccc3[nH]c(-c4ccsc4)cc23)c1 [Compound 267, 1-[3-[[2-(3-thienyl)-1H-pyrrolo[3,2-c]pyridin-4-yl]amino]phenyl]ethanone] | 50 to 100
CS(=O)(=O)c1ccc(Nc2nccc3[nH]c(-c4ccsc4)cc23)cc1 [Compound 268, N-(4-methylsulfonylphenyl)-2-(3-thienyl)-1H-pyrrolo[3,2-c]pyridin-4-amine] | 50 to 100
CC(C)Oc1ccc(Nc2nccc3[nH]c(-c4ccsc4)cc23)cc1 [Compound 269, N-(4-isopropoxyphenyl)-2-(3-thienyl)-1H-pyrrolo[3,2-c]pyridin-4-amine] | 0 to 30
CC(=O)Nc1ccc(Nc2nccc3c2cc(-c2ccsc2)n3C)cc1 [Compound 270, N-[4-[[1-methyl-2-(3-thienyl)pyrrolo[3,2-c]pyridin-4-yl]amino]phenyl]acetamide] | 50 to 100
Cn1c(-c2ccsc2)cc2c(Nc3ccc(O)cc3)nccc21 [Compound 271, 4-[[1-methyl-2-(3-thienyl)pyrrolo[3,2-c]pyridin-4-yl]amino]phenol] | 50 to 100
Cn1c(-c2ccsc2)cc2c(Nc3ccc4c(c3)OCCO4)nccc21 [Compound 273, N-(2,3-dihydro-1,4-benzodioxin-6-yl)-1-methyl-2-(3-thienyl)pyrrolo[3,2-c]pyridin-4-amine] | 30 to 50
COc1ccc(Nc2nccc3c2cc(-c2ccsc2)n3C)cc1OC [Compound 274, N-(3,4-dimethoxyphenyl)-1-methyl-2-(3-thienyl)pyrrolo[3,2-c]pyridin-4-amine] | 30 to 50
COc1ccc(Nc2nccc3c2cc(-c2ccsc2)n3C)cn1 [Compound 275, N-(6-methoxy-3-pyridyl)-1-methyl-2-(3-thienyl)pyrrolo[3,2-c]pyridin-4-amine] | 50 to 100
Cn1c(-c2ccsc2)cc2c(Nc3cccnc3)nccc21 [Compound 276, 1-methyl-N-(3-pyridyl)-2-(3-thienyl)pyrrolo[3,2-c]pyridin-4-amine] | 30 to 50
CN(C)c1cccc(Nc2nccc3c2cc(-c2ccsc2)n3C)c1 [Compound 277, N1,N1-dimethyl-N3-[1-methyl-2-(3-thienyl)pyrrolo[3,2-c]pyridin-4-yl]benzene-1,3-diamine] | 30 to 50
Cn1c(-c2ccsc2)cc2c(Nc3ccncc3)nccc21 [Compound 278, 1-methyl-N-(4-pyridyl)-2-(3-thienyl)pyrrolo[3,2-c]pyridin-4-amine] | 50 to 100
COc1ccc(Nc2nccc3c2cc(-c2ccsc2)n3C)cc1 [Compound 279, N-(4-methoxyphenyl)-1-methyl-2-(3-thienyl)pyrrolo[3,2-c]pyridin-4-amine] | 30 to 50
Cn1c(-c2ccsc2)cc2c(Nc3ccccn3)nccc21 [Compound 280, 1-methyl-N-(2-pyridyl)-2-(3-thienyl)pyrrolo[3,2-c]pyridin-4-amine] | 30 to 50
Cn1c(-c2ccsc2)cc2c(Nc3ccc(C#N)cc3)nccc21 [Compound 281, 4-[[1-methyl-2-(3-thienyl)pyrrolo[3,2-c]pyridin-4-yl]amino]benzonitrile] | 0 to 30
Cn1c(-c2ccsc2)cc2c(Nc3cccc(S(C)(=O)=O)c3)nccc21 [Compound 282, 1-methyl-N-(3-methylsulfonylphenyl)-2-(3-thienyl)pyrrolo[3,2-c]pyridin-4-amine] | 30 to 50
Cn1c(-c2ccsc2)cc2c(Nc3ccc4c(c3)OCO4)nccc21 [Compound 283, N-(1,3-benzodioxol-5-yl)-1-methyl-2-(3-thienyl)pyrrolo[3,2-c]pyridin-4-amine] | 30 to 50
COc1ccc(Nc2nccc3c2cc(-c2ccsc2)n3C)cc1O [Compound 284, 2-methoxy-5-[[1-methyl-2-(3-thienyl)pyrrolo[3,2-c]pyridin-4-yl]amino]phenol] | 50 to 100
Cn1c(-c2ccsc2)cc2c(Nc3ccncn3)nccc21 [Compound 285, 1-methyl-N-pyrimidin-4-yl-2-(3-thienyl)pyrrolo[3,2-c]pyridin-4-amine] | 50 to 100
Cn1c(-c2ccsc2)cc2c(Nc3cccc(NS(C)(=O)=O)c3)nccc21 [Compound 286, N-[3-[[1-methyl-2-(3-thienyl)pyrrolo[3,2-c]pyridin-4-yl]amino]phenyl]methanesulfonamide] | 50 to 100
CC(=O)Nc1cccc(Nc2nccc3c2cc(-c2ccsc2)n3C)c1 [Compound 287, N-[3-[[1-methyl-2-(3-thienyl)pyrrolo[3,2-c]pyridin-4-yl]amino]phenyl]acetamide] | 50 to 100

SMILES | Emax [%]
CC(=O)c1cccc(Nc2nccc3c2cc(-c2ccsc2)n3C)c1 [Compound 288, 1-[3-[[1-methyl-2-(3-thienyl)pyrrolo[3,2-c]pyridin-4-yl]amino]phenyl]ethanone] | 30 to 50
Cn1c(-c2ccsc2)cc2c(Nc3ccc(S(C)(=O)=O)cc3)nccc21 [Compound 289, 1-methyl-N-(4-methylsulfonylphenyl)-2-(3-thienyl)pyrrolo[3,2-c]pyridin-4-amine] | 30 to 50
COc1cc(OC)cc(-c2cc3c(Nc4ccc(C(N)=O)cc4)nccc3[nH]2)c1 [Compound 290, 4-[[2-(3,5-dimethoxyphenyl)-1H-pyrrolo[3,2-c]pyridin-4-yl]amino]benzamide] | 50 to 100
COc1cc(OC)cc(-c2cc3c(Nc4ccncc4)nccc3[nH]2)c1 [Compound 291, 2-(3,5-dimethoxyphenyl)-N-(4-pyridyl)-1H-pyrrolo[3,2-c]pyridin-4-amine] | 50 to 100
COc1cc(OC)cc(-c2cc3c(Nc4cccc(NS(C)(=O)=O)c4)nccc3[nH]2)c1 [Compound 292, N-[3-[[2-(3,5-dimethoxyphenyl)-1H-pyrrolo[3,2-c]pyridin-4-yl]amino]phenyl]methanesulfonamide] | 30 to 50
COc1cc(OC)cc(-c2cc3c(Nc4ccc(S(C)(=O)=O)cc4)nccc3[nH]2)c1 [Compound 293, 2-(3,5-dimethoxyphenyl)-N-(4-methylsulfonylphenyl)-1H-pyrrolo[3,2-c]pyridin-4-amine] | 50 to 100
COc1ccccc1-c1cc2c(Nc3ccc(C(N)=O)cc3)nccc2[nH]1 [Compound 294, 4-[[2-(2-methoxyphenyl)-1H-pyrrolo[3,2-c]pyridin-4-yl]amino]benzamide] | 50 to 100
COc1ccccc1-c1cc2c(Nc3ccncc3)nccc2[nH]1 [Compound 295, 2-(2-methoxyphenyl)-N-(4-pyridyl)-1H-pyrrolo[3,2-c]pyridin-4-amine] | 50 to 100
COc1ccccc1-c1cc2c(Nc3ccc4c(c3)OCO4)nccc2[nH]1 [Compound 296, N-(1,3-benzodioxol-5-yl)-2-(2-methoxyphenyl)-1H-pyrrolo[3,2-c]pyridin-4-amine] | 30 to 50
COc1ccccc1-c1cc2c(Nc3cccc(O)c3)nccc2[nH]1 [Compound 297, 3-[[2-(2-methoxyphenyl)-1H-pyrrolo[3,2-c]pyridin-4-yl]amino]phenol] | 30 to 50
COc1ccccc1-c1cc2c(Nc3cccc(NS(C)(=O)=O)c3)nccc2[nH]1 [Compound 298, N-[3-[[2-(2-methoxyphenyl)-1H-pyrrolo[3,2-c]pyridin-4-yl]amino]phenyl]methanesulfonamide] | 50 to 100
COc1ccccc1-c1cc2c(Nc3cccc(NC(C)=O)c3)nccc2[nH]1 [Compound 299, N-[3-[[2-(2-methoxyphenyl)-1H-pyrrolo[3,2-c]pyridin-4-yl]amino]phenyl]acetamide] | 50 to 100
COc1ccccc1-c1cc2c(Nc3ccc(S(C)(=O)=O)cc3)nccc2[nH]1 [Compound 300, 2-(2-methoxyphenyl)-N-(4-methylsulfonylphenyl)-1H-pyrrolo[3,2-c]pyridin-4-amine] | 50 to 100
COc1ccccc1-c1cc2c(Nc3ccc(NC(C)=O)cc3)nccc2n1C [Compound 301, N-[4-[[2-(2-methoxyphenyl)-1-methyl-pyrrolo[3,2-c]pyridin-4-yl]amino]phenyl]acetamide] | 50 to 100
COc1ccccc1-c1cc2c(Nc3cccnc3)nccc2n1C [Compound 303, 2-(2-methoxyphenyl)-1-methyl-N-(3-pyridyl)pyrrolo[3,2-c]pyridin-4-amine] | 30 to 50
COc1ccccc1-c1cc2c(Nc3ccccn3)nccc2n1C [Compound 304, 2-(2-methoxyphenyl)-1-methyl-N-(2-pyridyl)pyrrolo[3,2-c]pyridin-4-amine] | 30 to 50
COc1cccc(-c2cc3c(Nc4ccc(NC(C)=O)cc4)nccc3[nH]2)c1 [Compound 306, N-[4-[[2-(3-methoxyphenyl)-1H-pyrrolo[3,2-c]pyridin-4-yl]amino]phenyl]acetamide] | 50 to 100
COc1cccc(-c2cc3c(Nc4ccc(OC)nc4)nccc3[nH]2)c1 [Compound 307, 2-(3-methoxyphenyl)-N-(6-methoxy-3-pyridyl)-1H-pyrrolo[3,2-c]pyridin-4-amine] | 50 to 100
COc1cccc(-c2cc3c(Nc4cccnc4)nccc3[nH]2)c1 [Compound 308, 2-(3-methoxyphenyl)-N-(3-pyridyl)-1H-pyrrolo[3,2-c]pyridin-4-amine] | 50 to 100
COc1cccc(-c2cc3c(Nc4ccccc4)nccc3[nH]2)c1 [Compound 309, 2-(3-methoxyphenyl)-N-phenyl-1H-pyrrolo[3,2-c]pyridin-4-amine] | 30 to 50
COc1cccc(-c2cc3c(Nc4ccc(N5CCN(C)CC5)cc4)nccc3[nH]2)c1 [Compound 310, 2-(3-methoxyphenyl)-N-[4-(4-methylpiperazin-1-yl)phenyl]-1H-pyrrolo[3,2-c]pyridin-4-amine] | 50 to 100
COc1cccc(-c2cc3c(Nc4cccc(S(C)(=O)=O)c4)nccc3[nH]2)c1 [Compound 311, 2-(3-methoxyphenyl)-N-(3-methylsulfonylphenyl)-1H-pyrrolo[3,2-c]pyridin-4-amine] | 50 to 100
